Assay results: article PMC12427341, “Phytochemical-Mediated Modulation of Doramectin Pharmacology in Sheep: Exploring the Cinnamaldehyde–Pink Grapefruit Combination” (Animals : an Open Access Journal from MDPI, 2025)
Where “and” joins values, the source holds several entries; their conditions need not be identical. Equal entries are not always repeated. Marks after values point to notes of the source that are not given here. Each block holds one compound with its values, some of them ahead of it.

Columns and labels:
Syphacia muris = test system: Syphacia muris; design: method as in doi:10.2478/acve-2018-0036; details: rats infected with Syphacia muris; cited from earlier work
Ascaris suum = test system: Ascaris suum; design: method as in PMID 26420588; details: pigs; cited from earlier work
[1] = rats; cited from earlier work
[2] = test system: resistant gastrointestinal nematodes; assay: Fecal egg count reduction test (FECRT), trial 1: DRM, CNM–PGF and their combination as oral emulsions; assay type: in vivo, lambs
Experimental: The coadministration of DRM and CNM–PGF, both by an oral emulsion, was evaluated in lambs. The trial involved 35 Corriedale and Texel crossbred lambs (mean body weight, 26 kg) naturally infected with resistant gastrointestinal nematodes and was conducted in a sheep experimental unit (Estación Experimental INTA, Balcarce, Argentina). […] Animals were kept in a paddock and fed hay ad libitum, together with commercial concentrate feed. All animals had free access to water. Lambs were assigned to four experimental groups sorted by EPG count. Group A received an emulsion containing DRM (single dose of 0.2 mg/kg) (n = 9). Group B received CNM–PGF orally as an emulsion (two doses of 100 mg/kg every 24 h) (n = 9). Lambs of Group C were treated with an emulsion containing both DRM and CNM–PGF on the first day, and the second day, they received an emulsion of CNM–PGF only (n = 9). Group D included untreated lambs (n = 8). […] CNM–PGF was formulated as an emulsion composed of Tween-80/sesame oil (3:1) 20% at a final concentration of 15% CNM and 15% PGF. Briefly, the CNM–PGF emulsion was prepared using the high-energy ultrasonic method. CNM and PGF were mixed with sesame oil to form the oil phase. The oil phase was added dropwise to the aqueous phase containing Tween-80 and distillated water while stirring, and the emulsion formed was then subjected to ultrasonic emulsification for 15 min. The same steps were performed for the DRM + CNM–PGF emulsion, the synthetic compound was added to the oil phase, and their final concentration was 0.03%. […] To evaluate the effect of the treatment, individual fecal samples from all the lambs were collected on days −1, 7, and 14 of treatment, and the fecal egg count reduction (FECR) was calculated. The coprocultures were prepared with 10 g of feces from a pool of each experimental group obtained on days −1 and 14. The nematode genera and species were identified through the third-stage larvae recovered from the coprocultures.
(§1) Data are expressed as mean ± standard deviation (SD). Rho123 transport across the ileum is presented as ng of Rho123 in the receptor side of the chamber. The plasma concentration versus time curves obtained after treatment of each animal were fitted with the PK Solutions 2.0 software (summit Research Services, Ashland, OH, USA) software. Pharmacokinetic parameters were determined using a noncompartmental model method. The evaluation of the FECR was calculated according to the following formula [33], with modifications: FECR %=100 × (1−T2/T1) where T1 and T2 are the arithmetic mean EPG counts in the treated group on days 0 and 14, respectively. The 90% confidence intervals were calculated following the method of reference.
The statistical analysis was performed using Prism 8.0 (GraphPad Software, San Diego, CA, USA). ANOVA or Kruskal–Wallis tests were used for the statistical comparison. Tukey or Dunn tests were used for post hoc multiple comparisons. The egg counts obtained for each treatment on Day 14 were compared with the corresponding baseline counts on Day 0 using the Wilcoxon matched-pairs signed rank test. Differences were considered statistically significant at p < 0.05.

Haemonchus spp. [3] = assay: Efficacy by nematode genus (coprocultures), trial 1; assay type: in vivo, Haemonchus contortus; details: day 14, oral, lambs n = 9
Experimental: (§2) The coadministration of DRM and CNM–PGF, both by an oral emulsion, was evaluated in lambs. The trial involved 35 Corriedale and Texel crossbred lambs (mean body weight, 26 kg) naturally infected with resistant gastrointestinal nematodes and was conducted in a sheep experimental unit (Estación Experimental INTA, Balcarce, Argentina). There, a parasite control program based on the intensive use of antiparasitic drugs has been implemented for many years, leading to anthelmintic resistance to MLs and benzimidazoles. Animals were selected based on worm egg per gram counts (EPG), with an average EPG count of 2102 ± 1662. Animals were kept in a paddock and fed hay ad libitum, together with commercial concentrate feed. All animals had free access to water. Lambs were assigned to four experimental groups sorted by EPG count. Group A received an emulsion containing DRM (single dose of 0.2 mg/kg) (n = 9). Group B received CNM–PGF orally as an emulsion (two doses of 100 mg/kg every 24 h) (n = 9). Lambs of Group C were treated with an emulsion containing both DRM and CNM–PGF on the first day, and the second day, they received an emulsion of CNM–PGF only (n = 9). Group D included untreated lambs (n = 8). […] To evaluate the effect of the treatment, individual fecal samples from all the lambs were collected on days −1, 7, and 14 of treatment, and the fecal egg count reduction (FECR) was calculated. […]

Cooperia spp. = assay: as above; assay type: in vivo; details: day 14, oral, lambs n = 9
Experimental: as §2, with “8). The selected phytochemical dose was based on previous in vivo studies with other monoterpenes, such as thymol and carvone, which were administered to lambs at doses ranging from 100 to 150 mg/kg, without adverse effects. CNM–PGF was formulated as an emulsion composed of Tween-80/sesame oil (3:1) 20% at a final concentration of 15% CNM and 15% PGF. Briefly, the CNM–PGF emulsion was prepared using the high-energy ultrasonic method. CNM and PGF were mixed with sesame oil to form the oil phase. The oil phase was added dropwise to the aqueous phase containing Tween-80 and distillated water while stirring, and the emulsion formed was then subjected to ultrasonic emulsification for 15 min.” for “8).”

Teladorsagia spp. [4] = assay: as above; assay type: in vivo; details: day 14, oral, lambs n = 9
Experimental: as §2, with “8). The selected phytochemical dose was based on previous in vivo studies with other monoterpenes, such as thymol and carvone, which were administered to lambs at doses ranging from 100 to 150 mg/kg, without adverse effects. CNM–PGF was formulated as an emulsion composed of Tween-80/sesame oil (3:1) 20% at a final concentration of 15% CNM and 15% PGF. Briefly, the CNM–PGF emulsion was prepared using the high-energy ultrasonic method. CNM and PGF were mixed with sesame oil to form the oil phase. The oil phase was added dropwise to the aqueous phase containing Tween-80 and distillated water while stirring, and the emulsion formed was then subjected to ultrasonic emulsification for 15 min.” for “8).”

Trichostrongylus spp. [5] = assay: as above; assay type: in vivo; details: day 14, oral, lambs n = 9
Experimental: as §2, with “8). The selected phytochemical dose was based on previous in vivo studies with other monoterpenes, such as thymol and carvone, which were administered to lambs at doses ranging from 100 to 150 mg/kg, without adverse effects. CNM–PGF was formulated as an emulsion composed of Tween-80/sesame oil (3:1) 20% at a final concentration of 15% CNM and 15% PGF. Briefly, the CNM–PGF emulsion was prepared using the high-energy ultrasonic method. CNM and PGF were mixed with sesame oil to form the oil phase. The oil phase was added dropwise to the aqueous phase containing Tween-80 and distillated water while stirring, and the emulsion formed was then subjected to ultrasonic emulsification for 15 min.” for “8).”

[6] = Plasma pharmacokinetics of DRM after oral administration alone or with CNM–PGF or LPM; details: DRM 0.2 mg/kg oral emulsion; sheep n = 7; mean ± SD
Experimental: (§3) An in vivo assay was performed to evaluate the pharmacokinetics and the efficacy of DRM orally administered alone or in combination with CNM–PGF and LPM against resistant gastrointestinal nematodes in lambs. For the trial, 27 naturally infected Corriedale and Texel crossbreed lambs (average weight, 33 kg) were used. On day −1, all lambs were checked for EPG and tagged, and the individual body weights were recorded. As in the previous assay (Trial 2.1), the selection of the animals was based on EPG. […] Lambs were housed in a paddock with access to hay, commercial concentrates, and water ad libitum. Lambs were assigned into three experimental groups. Group A received DRM (0.2 mg/kg) as an oral emulsion (n = 7). Lambs in groups B and C received an emulsion containing DRM (a single dose of 0.2 mg/kg) and either LPM (n = 7) (three oral doses of 0.3 mg/kg, every 24 h) or CNM–PGF (n = 7) (three oral doses containing 72 and 64 mg/kg of CNM and PGF, respectively, every 24 h). Group D served as the untreated control (n = 6). As appropriate, the final concentrations of the active ingredients within the formulations were DRM 5%, CNM 18%, PGF 16%, LPM 30%. The compounds were diluted in Tween-80 11%, sesame oil 1–30%, and distilled water. The formulations were prepared using a similar method to that used in the previously described trial (Trial 2.1).
(§4) For the plasma disposition of DRM, jugular blood samples (2 mL) were collected into heparinized vacutainer tubes before treatment and at 3, 6, 9, 24, 30, 48, and 54 h and 3, 4, 7, 10, and 14 days post treatment. Blood samples were centrifuged at 2000× g for 15 min; the recovered plasma was kept in labeled vials and stored at −20 °C until the analysis of DRM by high performance liquid chromatography (HPLC). The effect of each treatment was indirectly estimated by collecting fecal samples on days −1 and 14 of administration to evaluate the FECR.
as §1

[7] = test system: resistant gastrointestinal nematodes; assay: Fecal egg count reduction test (FECRT), trial 2: DRM alone or with CNM–PGF or LPM; assay type: in vivo, lambs
Experimental: as §3, §4, §1
The statistical analysis was performed using Prism 8.0 (GraphPad Software, San Diego, CA, USA). ANOVA or Kruskal–Wallis tests were used for the statistical comparison. […]

Haemonchus spp. [8] = assay: Efficacy by nematode genus, trial 2; assay type: in vivo, Haemonchus contortus; details: day 14, oral, lambs n = 7
Text: (§5) Lambs were assigned into three experimental groups. […] Group D served as the untreated control (n = 6).

Teladorsagia spp. [9] = assay: Efficacy by nematode genus, trial 2; assay type: in vivo; details: day 14, oral, lambs n = 7
Text: as §5

Trichostrongylus spp. [10] = assay: Efficacy by nematode genus, trial 2; assay type: in vivo; details: day 14, oral, lambs n = 7
Text: as §5

P-glycoprotein [11] = test system: P-glycoprotein
Experimental: (§6) A series of ex vivo experiments were performed to evaluate the interaction of DRM, CNM–PGF, or LPM with ABC transporters. […] For this assay, sheep ileum samples were obtained from a local slaughterhouse (Ayacucho, Argentina). […] The incubation process was started immediately after obtaining the tissue. During the preparation and assembly process, intestinal tissue was always maintained between 0–4 °C. The tissue was then mounted vertically in a diffusion chamber with an internal surface area of 0.8 cm^2. […] Both the mucosal (M) and serosal (S) sides were filled with 7 and 5 mL of prewarmed and oxygenated Krebs buffer, respectively. […] During preparation, chambers were preincubated to slough off any dead cells, and during this period, the tissue were exposed in the donor side to the presence or absence of 5 µM of DRM; 1.5 mM of CNM–PGF; or 50 µM of LPM, a well-established P-gp modulator, which was used as a positive control [25, 26]. After a 20 min equilibration period, Krebs buffer was completely replaced with fresh medium fortified with 0.5 µM of Rho123 as a substrate to the M or S side of the chambers for measuring the absorption and secretion processes, respectively. Thus, Rho123 was incubated alone (control assays) or in the presence of DRM, CNM–PGF, or LPM. Tissues were incubated for 4 h, and each hour, aliquots of 1 mL were collected from the receptor side and replaced with fresh Krebs buffer.
(§7) Samples from the receptor side (1 mL) were mixed with 2 mL of distillated water to reach a final volume of 3 mL.
(§8) Values of unidirectional transepithelial effective permeability (Peff) (cm.s^−1) were calculated for each chamber according to the following equation: Peff=dC/dT1/A.C0
(§9) The appearance rate on the receiving compartment is dC/dT, calculated from the slope of the concentration versus time curve over a time period of 4 h (Rho123); A is the exposed area (cm^2) of the tissue in the Ussing chamber (0.8 cm^2), and C0 is the initial drug concentration (ng/mL) in the donor compartment. The efflux ratio (ER) was calculated as follows: ER=mean Peff S−M/mean Peff M−S
(§10) The intestinal absorption is represented by permeability in the M–S direction. The S–M side can also be used to measure permeability, in this case characterizes intestinal secretion. A higher Peff S–M compared to the Peff M–S is indicative of carrier-mediated transport.

[12] = design: method as in PMID 11106995; details: sheep; cited from earlier work
P-glycoprotein [13] = assay: Ex vivo intestinal transport of rhodamine 123 across sheep ileum (diffusion chamber model); details: 4 h; for Peff M–S of Rho123 in the presence of the modulator: 0.5 µM Rho123, 5 µM DRM, 1.5 mM CNM–PGF or 50 µM LPM
Experimental: as §6, §7, §8, §9, §10

[14] = test system: gastrointestinal nematodes; details: cited from earlier work; for Efficacy of single phytochemicals: sheep, low to moderate efficacy
C. elegans = test system: C. elegans; design: method as in doi:10.1155/2020/1740938; details: in vitro exposure; cited from earlier work
P-glycoprotein [15] = assay: in vitro; details: Corriedale and Texel crossbreed, sheep
Experimental: as §6, §7, §8, §9, §10

[16] = day 14, lower-upper confidence limit

SMILES: O=C/C=C/c1ccccc1 [CNM, cinnamaldehyde]
In vivo efficacy (Syphacia muris): no in vivo efficacy was observed
In vivo anthelmintic effect (Ascaris suum): failed to exert any in vivo anthelmintic effect
Oral LD50 [1]: approximately 2220 mg/kg

SMILES: CO[C@H]1C[C@H](O[C@H]2[C@H](C)O[C@@H](O[C@@H]3/C(C)=C/C[C@@H]4C[C@@H](C[C@]5(C=C[C@H](C)[C@@H](C6CCCCC6)O5)O4)OC(=O)[C@@H]4C=C(C)[C@@H](O)[C@H]5OC/C(=C\C=C\[C@@H]3C)[C@]54O)C[C@@H]2OC)O[C@@H](C)[C@@H]1O [DRM, doramectin]
Mean egg per gram (EPG) counts (±SD), Day 14 ([2]; 14 days after oral administration, DRM 0.2 mg/kg single dose, CNM–PGF two doses of 100 mg/kg every 24 h, lambs n = 9): 910 ± 2548 EPG and 910 ± 2548 ^abB EPG
Mean egg per gram (EPG) counts (±SD), Day 0 ([2]; baseline before treatment, lambs n = 9, mean ± SD): 2716 ± 2641 ^aA EPG
Prevalence of egg count negativization (percentage of animals with an egg count of zero) ([2]; day 14): 40%
FECR (LCL-UCL), 90% confidence interval [2, 16]: (0–98) %
FECR (%) ([2]; day 14, oral emulsion, lambs n = 9): 66%
Efficacy (%) against Haemonchus spp. (Haemonchus spp. [3]): 0%
Efficacy (%) against Cooperia spp. (Cooperia spp.): 100%
Efficacy (%) against Teladorsagia spp. (Teladorsagia spp. [4]): 100%
Efficacy (%) against Trichostrongylus spp. (Trichostrongylus spp. [5]): 100%
AUC0–t of DRM in plasma [6]: 90.84 ± 33.61 ^a ng d/mL
Cmax of DRM in plasma [6]: 25.76 ± 10.01 ^a ng/mL
T max of DRM in plasma [6]: 0.93 ± 0.47 ^a days
T ½ el (elimination half-life) of DRM [6]: 2.19 ± 0.41 ^a days
Mean egg per gram (EPG) counts (±SD), Day 14 ([7]; 14 days after oral DRM 0.2 mg/kg, LPM three doses of 0.3 mg/kg, CNM–PGF three doses of 72 and 64 mg/kg, every 24 h, lambs n = 7): 694 ± 944 EPG and 694 ± 944 ^aB EPG
Mean egg per gram (EPG) counts (±SD), Day 0 ([7]; baseline before treatment, lambs n = 7, mean ± SD): 1586 ± 984 ^aA EPG
FECR (LCL-UCL), 90% confidence interval [7, 16]: (9–88) %
FECR (%) ([7]; day 14, oral emulsion, lambs n = 7): 56%
Efficacy (%) against Haemonchus spp. (Haemonchus spp. [8]): 0%
Efficacy (%) against Teladorsagia spp. (Teladorsagia spp. [9]): 82%
Efficacy (%) against Trichostrongylus spp. (Trichostrongylus spp. [10]): 100%
Efflux ratio (ER) of Rho123 in the presence of the modulator (P-glycoprotein [11]): 4.66
Absolute oral bioavailability [12]: 25%
Peff M–S of Rho123 in the presence of the modulator (P-glycoprotein [13]): 3.83 ± 1.87 ×10⁻⁶ cm/s

SMILES: CN(C)C(=O)C(CCN1CCC(O)(c2ccc(Cl)cc2)CC1)(c1ccccc1)c1ccccc1 [LPM, loperamide]
Peff M–S of Rho123 in the presence of the modulator (P-glycoprotein [13]): 3.84 ± 1.02 ×10⁻⁶ cm/s

SMILES: C=C(C)[C@H]1CC=C(C)CC1 [Limonene, limonene]
FECR ([14]; long-term administration through feed, coadministered with a single dose of ivermectin, adult nematode number unaffected): 82%
Survival rate of C. elegans (C. elegans): 30%

efflux ratio at 4 h, 0.5 µM (P-glycoprotein [15]): 10.3
Rho123 absorption, Peff M–S (P-glycoprotein [13]; 0.5 µM Rho123 alone (control)): 1.39 ± 0.343 ×10⁻⁶ cm/s
Rho123 secretion, Peff S–M (P-glycoprotein [13]; 0.5 µM Rho123 alone (control)): 11.1 ± 3.64 ×10⁻⁶ cm/s
SMILES: COC(=O)c1ccccc1-c1c2ccc(=N)cc-2oc2cc(N)ccc12 [Rho123, rhodamine 123]

SMILES: C=C(C)C1CC=C(C)C(=O)C1 (stereo not shown) [carvone]
Efficacy of single phytochemicals [14]: 0–47%

SMILES: Cc1ccc(C(C)C)c(O)c1 [thymol]
Efficacy of single phytochemicals [14]: 0–47%
